Among the test systems are EKVX NSCLC; A498 renal; HOP-92 NSCLC; MDA-MB-231 breast; NCI-H522 lung; 786-0 renal; PC-3 prostate; KM12 colon; M19-MEL melanoma; HOP-18 NSCLC.
Assay in all cases: DTP human tumour cell line panel, 48 h

SMILES strings stand for the structures.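 Interpolation was linear, between the two tested concentrations surrounding the appropriate level; five concentrations were tested over 48 hours in 96-well plates. The concentration for 50% growth inhibition is given as GI50. At the TGI there is no net growth.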

On to `C=CCc1c2c(c(OC)c3ccoc13)C(=O)/C(=C/c1ccccc1OC)O2`, for which the GI50 (usually the concentration at which growth is held to half of that of the control) in the experiment with EKVX NSCLC was 4.41 µM; with A498 renal, 5.81 µM; in the experiment on HOP-92 NSCLC it was 2.07 µM; in the experiment with MDA-MB-231 breast, 4.59 µM; in the experiment with NCI-H522 lung it was 3.16 µM; in the experiment on 786-0 renal, 6.28 µM. The results for the GI50 in the experiment on PC-3 prostate and in the experiment on KM12 colon were 5.25 µM and 3.49 µM, respectively. For the same molecule, the TGI (in general, the concentration at which net growth stops) is more than 100 µM with EKVX NSCLC; 79.2 µM in the experiment with A498 renal; 6.2 µM in the experiment with HOP-92 NSCLC; more than 100 µM in the experiment with MDA-MB-231 breast; 31.7 µM with NCI-H522 lung; more than 100 µM in the experiment with 786-0 renal. In addition, the TGI with PC-3 prostate is more than 100 µM; in the experiment with KM12 colon it was 22.3 µM.

`COC(=O)/C=C/C=C(c1ccccc1)c1ccccc1`: the GI50 in the experiment with EKVX NSCLC is 4.06 µM; in the experiment on A498 renal, 10.6 µM; in the experiment on HOP-92 NSCLC, 3.52 µM; in the experiment with MDA-MB-231 breast, 11.1 µM; in the experiment on NCI-H522 lung, 5.88 µM; in the experiment with 786-0 renal it was 4.32 µM. In addition, the GI50 with PC-3 prostate was 4.67 µM; in the experiment on KM12 colon, 3.67 µM. Further, the TGI in the experiment with EKVX NSCLC turned out to be 32.8 µM; with A498 renal it was 39.6 µM; in the experiment with HOP-92 NSCLC, 38.8 µM; in the experiment with MDA-MB-231 breast, 36 µM; in the experiment on NCI-H522 lung, 78.1 µM; with 786-0 renal it was 58.5 µM. For the same molecule, the TGI with PC-3 prostate is more than 100 µM; in the experiment with KM12 colon it was 27.4 µM.

As to `COc1cccc(/C=C/C(=O)c2cccc(Nc3nc(Nc4ccccc4)nc(Nc4ccccc4)n3)c2)c1`, the GI50 with EKVX NSCLC is more than 20.2 µM; in the experiment with A498 renal it was 6.04 µM; with HOP-92 NSCLC, 1.24 µM; in the experiment on MDA-MB-231 breast it was 32.7 µM; with NCI-H522 lung, 15.1 µM; in the experiment with 786-0 renal it was 18.6 µM. Also, the GI50 is 5.21 µM in the experiment on PC-3 prostate and 3.88 µM in the experiment on KM12 colon. The TGI in the experiment on EKVX NSCLC is more than 78.6 µM; in the experiment on A498 renal it was 17.7 µM; in the experiment on HOP-92 NSCLC, 50.5 µM; with MDA-MB-231 breast it was more than 100 µM; with NCI-H522 lung it was more than 100 µM; in the experiment on 786-0 renal, more than 65.5 µM. Further, the values for the total growth inhibition concentration (TGI) in the experiment with PC-3 prostate and in the experiment with KM12 colon were more than 67.2 µM and 18.3 µM, respectively.

Turning to `CCCCCCCCCc1cc(=O)c2ccc(OCc3ccccc3)cc2o1`, the TGI in the experiment on EKVX NSCLC, with HOP-92 NSCLC, with M19-MEL melanoma, in the experiment on NCI-H522 lung, in the experiment with 786-0 renal and in the experiment on HOP-18 NSCLC was more than 100 µM in each case. The molecule also displayed a TGI in the experiment with KM12 colon of more than 100 µM.

Take `O=C(Cn1ccc(=O)[nH]c1=O)Nc1ccc(C(=O)O)c(O)c1`: the TGI in the experiment on EKVX NSCLC, in the experiment with A498 renal, in the experiment with HOP-92 NSCLC, in the experiment with MDA-MB-231 breast, in the experiment on NCI-H522 lung and with 786-0 renal was more than 100 µM each time. Also, the TGI in the experiment with PC-3 prostate and in the experiment on KM12 colon was more than 100 µM each time.

With `COC(=O)CCC1CCc2c(OC)ccc(O)c2C1=O` (centres undefined), the TGI with EKVX NSCLC, in the experiment with A498 renal, in the experiment on M19-MEL melanoma, with NCI-H522 lung, in the experiment on 786-0 renal and in the experiment on KM12 colon was more than 100 µM in each case.

In the case of `O=C(O)c1ccc([Se][Se]c2ccc(C(=O)O)cc2)cc1`, the TGI with EKVX NSCLC was 64.3 µM; in the experiment with M19-MEL melanoma, 40.5 µM; in the experiment on NCI-H522 lung, 52 µM; in the experiment on 786-0 renal, more than 100 µM; in the experiment with HOP-18 NSCLC, 82.3 µM; in the experiment with KM12 colon it was 68.4 µM.

With `Cc1sc(C(=O)Nc2cc(C(=O)NCCCN(C)C)n(C)c2)cc1NC(=O)CCCN1C(=O)c2cccc3cccc(c23)C1=O`, the GI50 in the experiment on EKVX NSCLC, in the experiment with A498 renal, with HOP-92 NSCLC, with MDA-MB-231 breast, in the experiment with NCI-H522 lung and with 786-0 renal was more than 100 µM each time. In addition, the GI50 in the experiment on PC-3 prostate and in the experiment on KM12 colon was more than 100 µM throughout. Besides, the TGI in the experiment on EKVX NSCLC, in the experiment on A498 renal, with HOP-92 NSCLC, in the experiment on MDA-MB-231 breast, in the experiment with NCI-H522 lung and in the experiment on 786-0 renal was more than 100 µM in each case. Moreover, the TGI in the experiment on PC-3 prostate and with KM12 colon was more than 100 µM each time.

For `C[C@@H](C(=O)Nc1ccc(Cl)cc1)C1CCC(c2ccnc3ccc(F)cc23)CC1` (some centres undefined), the GI50 in the experiment on EKVX NSCLC is 4.54 µM; in the experiment with A498 renal it was 6.27 µM; in the experiment with HOP-92 NSCLC it was 2.85 µM; with MDA-MB-231 breast it was 7.83 µM; in the experiment on NCI-H522 lung it was 10.7 µM; in the experiment with 786-0 renal, 4.31 µM. The GI50 with PC-3 prostate was 3.43 µM; in the experiment with KM12 colon, 6.01 µM. Besides, the TGI in the experiment with EKVX NSCLC was 61.6 µM; in the experiment on A498 renal, 56.8 µM; with HOP-92 NSCLC, 9.15 µM; with MDA-MB-231 breast, 48 µM; with NCI-H522 lung it was 70.5 µM; with 786-0 renal, more than 100 µM. For the same molecule, the values for the TGI with PC-3 prostate and with KM12 colon were more than 100 µM and 34.9 µM, respectively.

As to `O=C([O-])c1ccccc1Nc1ccccn1.O=C([O-])c1ccccc1Nc1ccccn1.[Ni+2]`, the GI50 with EKVX NSCLC was 31.8 µM; with A498 renal, more than 100 µM; with HOP-92 NSCLC, 37.1 µM; with M19-MEL melanoma, more than 100 µM; in the experiment with NCI-H522 lung it was more than 100 µM; in the experiment on 786-0 renal, more than 100 µM. Besides, the GI50 in the experiment on KM12 colon was more than 100 µM. The TGI was more than 100 µM in the experiment with EKVX NSCLC; more than 100 µM in the experiment with A498 renal; 92.8 µM in the experiment with HOP-92 NSCLC; more than 100 µM with M19-MEL melanoma; more than 100 µM in the experiment with NCI-H522 lung; more than 100 µM in the experiment on 786-0 renal. The TGI in the experiment on KM12 colon is more than 100 µM.

As for `COc1cc(C2c3cc4c(cc3OC(N3CCCC3)C2C)OCO4)cc(OC)c1OC` (centres undefined), the TGI in the experiment with EKVX NSCLC was more than 95.5 µM; in the experiment on A498 renal it was 7.73 µM; in the experiment on HOP-92 NSCLC, 21.2 µM; in the experiment on MDA-MB-231 breast it was 9.32 µM; in the experiment with NCI-H522 lung, 1.55 µM; with 786-0 renal it was 30 µM. Moreover, the TGI with PC-3 prostate is more than 62.5 µM; in the experiment on KM12 colon, 3.68 µM.

The values above are taken from PubChem BioAssay (NCI).
